# According to PMC12630292 (Journal of Neural Transmission, 2025):
# Where two headings read alike, the source gives them in different places.
# Tests used:
# D2L receptor = D2L receptor (Homo sapiens, UniProt P14416); assay: cell-based; conditions: read-out: Emax relative to dopamine, β-arrestin assay D2L
# D2S receptor = D2S receptor (Homo sapiens, UniProt P14416); assay: cell-based; conditions: read-out: Emax relative to dopamine, β-arrestin assay D2S
# D1 receptor [1] = molecular target: T1, D1 receptor (Homo sapiens, UniProt P21728); assay: cell-based; conditions: read-out: Emax relative to dopamine, internalization assay D1
# D1 receptor [2] = molecular target: T1, D1 receptor; assay: cell-based; conditions: read-out: Emax relative to dopamine, β-arrestin assay D1
# 5HT2A = conditions: ref Millan et al. [2002]; Newman-Tancredi et al. [2002]; cited from earlier work
# D4 receptor = D4 receptor (Homo sapiens, UniProt P21917); assay: cell-based; conditions: read-out: Emax relative to dopamine, β-arrestin assay D4
# D3 receptor = D3 receptor (Homo sapiens, UniProt P35462); assay: cell-based; conditions: read-out: Emax relative to dopamine, β-arrestin assay D3
smiles,measurement,setting,value
CN1CCc2cccc3c2[C@H]1Cc1ccc(O)c(O)c1-3 [Apomorphine],Emax,D2L receptor,83%
same,Emax,D2S receptor,90%
same,Emax,D1 receptor [1],38%
same,Emax,D1 receptor [2],28%
same,5HT2A antagonist actions,5HT2A,weak
same,Emax,D4 receptor,52%
same,Emax,D3 receptor,89%
